Assay: gradient 5% acetonitrile 3 min, to 50% in 2 min, to 85% in 15 min, held 3 min, 100 µL/min
Conditions: column: Zorbax Extend-C18 2.1 x 50 mm; eluents: water / acetonitrile, 0.1% formic acid
Summary of the method: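 The mobile phases were water and acetonitrile, each with 0.1% formic acid, pumped at 100 μL/min through a Zorbax Extend-C18 column (2.1 × 50 mm, 1.8 μm). Pure standards were injected as mixtures of ~100 molecules and detected by a quadrupole time-of-flight mass spectrometer in positive and negative ionization mode. Retention time came from computationally picked adduct peaks, each inspected by hand.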

| SMILES | RP-LC retention time |
| --- | --- |
| O=C(Cc1csc2nc(-c3ccccc3)cn12)Nc1ccc(F)cc1F | 809 s |
| CCn1cnc2ccc(C(=O)NC3CCCC3)cc2c1=O | 688 s |
| CCOC(=O)N1CCC(c2nnc(-c3ccco3)s2)CC1 | 728 s |
| COc1ccc(-c2csc(NC(=O)CS(=O)(=O)c3ccc(Cl)cc3)n2)cc1C | 1080 s |
| COc1ccc(-c2nnc(COc3cccc(NC(=O)C4CCC4)c3)o2)cc1 | 901 s |
| O=C(Nc1ccc2c(c1)N(C(=O)c1ccccc1)CCC2)c1cccs1 | 876 s |
| CCOC(=O)c1c(C)[nH]c(C(=O)N2CCC(CC(=O)NCc3cccc(F)c3)CC2)c1C | 779 s |
| CCOC(=O)C1=C(CNc2ccc(F)cc2)NC(=O)NC1c1ccccc1 (configuration not stated) | 868 s |
| O=C(Cn1cnc2nc(N3CCC(C(=O)NC4CC4)CC3)sc2c1=O)Nc1cc(F)ccc1F | 693 s |
| CCOC(=O)c1c(C)[nH]c(C(=O)N2CCCC(C(=O)NCCN3CCCCC3)C2)c1C (configuration not stated) | 620 s |
| O=S(=O)(c1ccccc1)N1CC(c2nnc(-c3ccncc3)o2)C2(CCOCC2)C1 (configuration not stated) | 660 s |
| CC1(C)CC(=O)CC(C)(C)N1O | 666 s |
| Cc1cc(-c2cc(S(=O)(=O)NC3CCCCCC3)c(C)s2)n[nH]1 | 917 s |
| COc1ccc(OC)c(NC(=O)Cn2cccc2-c2nnc(-c3ccccc3)o2)c1 | 1020 s |
| COC(=O)c1c(C)[nH]c(C(=O)N2CCCC(C(=O)NCc3ccc4c(c3)OCO4)C2)c1C (configuration not stated) | 720 s |
| CC1CCN(S(=O)(=O)c2ccc(-c3nnc(C(=O)N4CCC5(CC4)OCCO5)o3)cc2)CC1 | 952 s |
| CN1c2cc(C(=O)NCc3cc(F)cc(F)c3)ccc2C(=O)N2CCCCC21 (configuration not stated) | 844 s |
| CCOc1ccc(N(C)S(=O)(=O)c2ccsc2C(=O)NC(C)CCc2ccccc2)cc1 (configuration not stated) | 1260 s |
| Cc1ccc(S(=O)(=O)Nc2ccc(Cn3cncn3)cc2)cc1F | 732 s |

| SMILES | RP-LC retention time |
| --- | --- |
| Cc1cnc(-c2ccccc2)n1C1CCN(S(=O)(=O)Cc2ccccc2)CC1 | 686 s |
| COc1ccc2[nH]cc(CCNC(=O)c3cccc(Cl)c3)c2c1 | 840 s |
| CCCN(CC1CCOC1)C(=O)Nc1cccc(F)c1 (configuration not stated) | 684 s |
| O=C(c1n[nH]c(=O)c2ccccc12)N1C[C@H]2C[C@H](C1)[C@H]1CCCC(=O)N1C2 | 598 s |
| Cc1cnc(C2CC2)n1C1CCN(C(=O)C2(c3ccccc3)CC2)CC1 | 636 s |
| CCOC(=O)c1[nH]c(C)c(C(=O)N2CCC(CC(=O)NC3CC3)CC2)c1C | 628 s |
| Cc1noc(C)c1CC(=O)NCc1cc(-c2ccc3c(c2)OCO3)on1 | 689 s |
| CCCNC(=O)N1CC(Oc2ccc(-c3nc(-c4ccccc4)no3)cc2)C1 | 861 s |
| CN(C)S(=O)(=O)N1CCC(F)(c2nc(-c3ccccc3)no2)CC1 | 1030 s |
| CCN1CCN(CCCNC(=O)C(C)n2c3ccccc3c3cnn(C)c(=O)c32)CC1 (configuration not stated) | 553 s |
| CSc1ccc(-c2nc3c(C)cccn3c2NC2CCCCC2)cc1 | 868 s |
| CC(C)c1nnc(C2CN(Cc3ccc(F)c(Cl)c3)CC23CCN(C)CC3)o1 (configuration not stated) | 591 s |
| COc1ccc(-c2noc(-c3nnn4c3COC(c3ccc(Cl)cc3)C4)n2)cc1 (configuration not stated) | 1190 s |
| COc1ccc(C(=O)N2CCC3(CC2)N=C(c2ccc(Cl)cc2)NO3)cc1F | 819 s |
| Cc1oc(-c2[nH]ncc2C(=O)N2CCOCC2)cc1S(=O)(=O)Nc1ccc(F)cc1 | 669 s |
| O=C(Cc1cn2cc(Br)ccc2n1)N1CCc2ccccc2C1 | 635 s |
| O=C(NCCc1ccco1)C1CCN(Cc2cc3ccccc3n2Cc2ccccc2)CC1 | 762 s |
| CS(=O)(=O)N(C1CCOCC1)C1CN(C(=O)NCc2ccccc2)C1 | 660 s |

Source: the METLIN SMRT retention time set (Domingo-Almenara et al. 2019)
